Data published in US20100261774A1, “Methods for the modulation of Leishmania major infection in mammals” (Children's Hospital Medical Center, priority 2009, published 2010).
Read-outs that look alike come from different tables or passages of the source.

Tests used:
[1] = tested on: visceral leishmaniasis; test: Treatment of visceral leishmaniasis in patients with oral 1-MT; format: in vivo
Text: Patients present with symptoms of fever and organomegaly of long standing that is unresponsive to standard treatment, possibly with attendant anemia and pancytopenia, with a history of travel in an area in which leishmaniasis is known to be endemic. Laboratory tests confirm a diagnosis of visceral […]. […] Patients present with symptoms of fever and organomegaly of long standing that is unresponsive to standard treatment, possibly with attendant anemia and pancytopenia, with a history of travel in an area in which leishmaniasis is known to be endemic. Laboratory tests confirm a diagnosis of visceral leishmaniasis. […] Patients present with symptoms of fever and organomegaly of long standing that is unresponsive to standard treatment, possibly with attendant anemia and pancytopenia, with a history of travel in an area in which leishmaniasis is known to be endemic. Laboratory tests confirm a diagnosis of visceral leishmaniasis.

[2] = tested on: T. gondii (ME49 strain)
Text: (B) Parasite burden. […] (C) Serum IFN-γ. (D) Serum TNF-α. (E) Serum IL-10. Systemic cytokine production was quantified by the CCA assay 30 d after infection. […] Values shown are means±SE of 8 mice/group. (F) Kinetic analysis of parasite burden in the experiment depicted in FIG. 1A. […] (G) IL-12/23p40 mRNA. (H) IFN-γ mRNA. (I) TNF-α mRNA. (J) IL-10 mRNA. Cytokine mRNA was quantified in brain by qRT-PCR 30 d after infection.
To evaluate parasite load, infected animals were killed and the number of T. gondii cysts present in brain homogenates from these animals were counted.

[3] = tested on: T. gondii; conditions: mouse, in vivo
[4] = tested on: Leishmania major clone V1 (MHOM/IL/80/Friedlin)
Procedure: (B) Parasite burden. Quantification of parasite outgrowth from titrations of ear tissue lysates was performed at the indicated times. Values shown are means+SE of 6 mice/group. […] The effect of IDO inhibition during cutaneous leishmaniasis on antigen-specific cytokine production. […] (F) IL-10. Cytokines were quantified by ELISA in the supernatants of soluble L. major antigen-stimulated cells isolated from draining lymph nodes 4 wk after infection. Values shown are means+SE of 6 mice/group. *P<0.05.
Lesion size was quantified with a vernier caliper. Parasite burden was quantified by determining the highest dilution of ear tissue lysates in which promastigote outgrowth could be detected out after 7 days of incubation. […] Cells isolated from lymph nodes draining lesions were incubated with L major promastigote lysates.
Cytokines were quantified by ELISA in culture supernatants harvested 48 h later.

[5] = L. major antigen-stimulated, ELISA, 4 wk after infection, vs untreated
[6] = early phase of parasite clearance (4 wk after infection), CCA assay

Cn1cc(C[C@H](N)C(=O)O)c2ccccc21 [1-MT, 1-methyl tryptophan]
amelioration of symptoms of visceral leishmaniasis ([1]; oral 1-MT 12.5-75 mg/kg/day with a drug such as amphotericin at less than usual doses, Example 4): equivalent to that achieved with standard drug therapy alone | amelioration of symptoms of visceral leishmaniasis ([1]; oral 1-MT 12.5-75 mg/kg/day with a drug such as amphotericin at normal doses, Example 3): more rapid than that observed with standard drug therapy alone | symptoms of visceral leishmaniasis ([1]; oral 1-MT approximately 12.5-75 mg/kg/day alone, Example 2): Amelioration of symptoms is observed | serum levels of IFN-γ, TNF-α and IL-10 ([2]; CCA assay, 30 d after infection, vs control): No significant alteration | mortality ([2]; T. gondii-infected mice given 1-MT, FIG. 1A): 100% | mRNA expression of IL-12/23p40, IFN-γ, TNF-α and IL-10 in the central nervous system ([2]; qRT-PCR in brain, 30 d after infection, vs control): lack of biologically important changes | mortality ([2]; second independent experiment, not pictured, 1-MT vs control): 100% | disease course and mortality [3]: reactivation of disease and increased mortality | local and systemic production of inflammatory mediators [3]: relatively little differences | serum levels of IL-4 ([4]; 1-MT treated vs untreated infected mice, data not shown): no differences | IFN-γ protein produced by cells from draining lymph nodes [4, 5]: Relatively more | IL-10 produced by T cells from draining lymph nodes [4, 5]: relatively less | serum IFN-γ [4, 6]: significantly increased | serum IL-10 concentrations [4, 6]: decreased | lesional size ([4]; first weeks after infection while lesion size increasing, vs untreated): No overt differences | lesional size ([4]; post apex period, weeks 4-12 post infection, vs untreated): significantly smaller | parasite burden ([4]; weeks 4 through 12 post infection, vs controls, FIG. 4B): significantly lower
